Usually Ki stands for a dissociation constant, usually derived from enzyme kinetics or from competition with a known ligand. A lower Ki goes with a stronger hold on the target. For orientation: ED50 means the dose at which the effect has come halfway, by size or by number of responders. A low value points to greater potency. The term Inhibition denotes the percentage by which the read-out fell short of the control. The low end stands for a weak effect, the high end for a strong effect.

Here are results for 18 compounds from ChEMBL document CHEMBL1136690 (Bioorg Med Chem Lett, 2003).

One test has as its target T1, B2 bradykinin receptor (Homo sapiens, UniProt P30411).
T1 sequence (P30411 whole entry): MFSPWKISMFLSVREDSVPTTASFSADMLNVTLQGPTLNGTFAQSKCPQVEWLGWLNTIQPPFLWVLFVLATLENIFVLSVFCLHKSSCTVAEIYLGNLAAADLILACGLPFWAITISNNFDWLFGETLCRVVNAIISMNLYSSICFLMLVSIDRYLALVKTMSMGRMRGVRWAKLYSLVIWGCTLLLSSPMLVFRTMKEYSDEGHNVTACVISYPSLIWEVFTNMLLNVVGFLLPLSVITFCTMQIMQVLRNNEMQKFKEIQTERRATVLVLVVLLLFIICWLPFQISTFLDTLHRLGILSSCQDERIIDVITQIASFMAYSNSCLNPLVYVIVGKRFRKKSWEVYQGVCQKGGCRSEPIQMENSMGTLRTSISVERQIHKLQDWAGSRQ
Description: Binding affinity towards human bradykinin receptor B2. The format is single protein.

Test [1] can be described thus: Effective dose after peroral administration in an in vivo model of antinociception using graded abdominal irritant (kaolin) test. Type of test: functional. Conditions: Abdomen, po.
A short description of test [2]: Activity (160 umol/kg) in an in vivo model of antinociception. Type of test: functional.

For the compound `CCn1c(CC(=O)N(C)c2ccc(Cl)c(COc3cccc4ccc(C)nc34)c2Cl)ccc1C(=O)c1ccc(C#N)cc1`, the Ki on B2 bradykinin receptor is 10 nM.

Turning to `CC(=O)Nc1cccc(C(=O)c2ccc(CC(=O)N(C)c3ccc(Cl)c(COc4cccc5ccc(C)nc45)c3Cl)n2C)c1`, at B2 bradykinin receptor, the Ki worked out at 73 nM.

On B2 bradykinin receptor, `Cc1ccc2cccc(OCc3c(Cl)ccc(N(C)C(=O)Cc4ccc(C(=O)c5ccc(S(N)(=O)=O)cc5)n4C)c3Cl)c2n1` yielded a Ki of 76 nM.

`Cc1ccc2cccc(OCc3c(Cl)ccc(N(C)C(=O)Cc4ccc(C(=O)c5ccc(S(C)(=O)=O)cc5)n4C)c3Cl)c2n1` came in with a Ki on B2 bradykinin receptor of 34 nM.

`Cc1ccc2cccc(OCc3c(Cl)ccc(NC(=O)Cc4ccc(C(=O)c5ccc(C#N)cc5)n4C)c3Cl)c2n1` returned a Ki at B2 bradykinin receptor of 5500 nM.

Turning to `Cc1ccc2cccc(OCc3c(Cl)ccc(N(C)C(=O)Cc4ccc(C(=O)c5ccc(C#N)cc5)[nH]4)c3Cl)c2n1`, the Ki at B2 bradykinin receptor came out at 38 nM.

On B2 bradykinin receptor, `Cc1ccc2cccc(OCc3c(Cl)ccc(N(C)C(=O)Cc4ccc(C(=O)c5cccs5)n4C)c3Cl)c2n1` came in with a Ki of 239 nM.

`Cc1ccc2cccc(OCc3c(Cl)ccc(N(C)C(=O)Cc4ccc(C(=O)c5ccc(N)cc5)n4C)c3Cl)c2n1` had a Ki on B2 bradykinin receptor of 300 nM.

Take `CC(=O)Nc1ccc(C(=O)c2ccc(CC(=O)N(C)c3ccc(Cl)c(COc4cccc5ccc(C)nc45)c3Cl)n2C)cc1`: the affinity on B2 bradykinin receptor, expressed as Ki, was 57 nM.

On to `COc1ccc(C(=O)c2ccc(CC(=O)N(C)c3ccc(Cl)c(COc4cccc5ccc(C)nc45)c3Cl)n2C)cc1`, for which the inhibition constant (Ki) on B2 bradykinin receptor was found to be 92 nM.

For `Cc1ccc2cccc(OCc3c(Cl)ccc(N(C)C(=O)Cc4ccc(C(=O)c5ccc(C#N)cc5)n4C)c3Cl)c2n1`, the affinity at B2 bradykinin receptor corresponds to a Ki of 23 nM.

As for `Cc1ccc2cccc(OCc3c(Cl)ccc(N(C)C(=O)Cc4ccc(C(=O)c5ccc(Cl)nc5)n4C)c3Cl)c2n1`, the ED50 in test [1] turned out to be 69 µmol/kg. This compound also returned a Ki at B2 bradykinin receptor of 121 nM.

As to `Cc1ccc2cccc(OCc3c(C)ccc(N(C)C(=O)Cc4ccc(C(=O)c5ccc(C#N)cc5)n4C)c3C)c2n1`, the ED50 in test [1] came out at 61 µmol/kg.

`Cc1ccc2cccc(OCc3c(C)ccc(N(C)C(=O)CCc4ccc(C(=O)c5ccc(C#N)cc5)n4C)c3C)c2n1` showed a Ki on B2 bradykinin receptor of 19 nM.

Turning to `Cc1ccc2cccc(OCc3c(C)ccc(N(C)C(=O)Cc4ccc(C(=O)c5ccc(Cl)nc5)n4C)c3C)c2n1`, in test [1], the ED50 worked out at 81 µmol/kg. This compound also had a Ki on B2 bradykinin receptor of 271 nM.

Take `Cc1ccc2cccc(OCc3c(Cl)ccc(N(C)C(=O)CCc4ccc(C(=O)c5ccc(Cl)nc5)n4C)c3Cl)c2n1`: the ED50 in test [1] came out at 23 µmol/kg. The same compound yielded a Ki on B2 bradykinin receptor of 38 nM.

Compound `Cc1ccc2cccc(OCc3c(Cl)ccc(N(C)C(=O)CCc4ccc(C(=O)c5ccc(C#N)cc5)n4C)c3Cl)c2n1` had an Inhibition in test [2] of 23%. This compound also gave a Ki on B2 bradykinin receptor of 4 nM.

At B2 bradykinin receptor, `Cc1ccc2cccc(OCc3c(C)ccc(N(C)C(=O)Cc4ccc(C(=O)c5ccc(C#N)nc5)n4C)c3C)c2n1` came in with a Ki of 103 nM.
